Article PMC8167103, “Regulation of Bcl-XL by non-canonical NF-κB in the context of CD40-induced drug resistance in CLL” (Cell Death and Differentiation, 2021)

Molecular target: T1, NIK (Homo sapiens, UniProt Q99558)
T1 construct: gene MAP3K14
Assay: Kinase-Glo luminescence kinase assay with recombinant human active NIK, myelin basic protein and […] ATP; IC50 converted to Ki
Format: biochemical

T1 sequence (Q99558 whole entry): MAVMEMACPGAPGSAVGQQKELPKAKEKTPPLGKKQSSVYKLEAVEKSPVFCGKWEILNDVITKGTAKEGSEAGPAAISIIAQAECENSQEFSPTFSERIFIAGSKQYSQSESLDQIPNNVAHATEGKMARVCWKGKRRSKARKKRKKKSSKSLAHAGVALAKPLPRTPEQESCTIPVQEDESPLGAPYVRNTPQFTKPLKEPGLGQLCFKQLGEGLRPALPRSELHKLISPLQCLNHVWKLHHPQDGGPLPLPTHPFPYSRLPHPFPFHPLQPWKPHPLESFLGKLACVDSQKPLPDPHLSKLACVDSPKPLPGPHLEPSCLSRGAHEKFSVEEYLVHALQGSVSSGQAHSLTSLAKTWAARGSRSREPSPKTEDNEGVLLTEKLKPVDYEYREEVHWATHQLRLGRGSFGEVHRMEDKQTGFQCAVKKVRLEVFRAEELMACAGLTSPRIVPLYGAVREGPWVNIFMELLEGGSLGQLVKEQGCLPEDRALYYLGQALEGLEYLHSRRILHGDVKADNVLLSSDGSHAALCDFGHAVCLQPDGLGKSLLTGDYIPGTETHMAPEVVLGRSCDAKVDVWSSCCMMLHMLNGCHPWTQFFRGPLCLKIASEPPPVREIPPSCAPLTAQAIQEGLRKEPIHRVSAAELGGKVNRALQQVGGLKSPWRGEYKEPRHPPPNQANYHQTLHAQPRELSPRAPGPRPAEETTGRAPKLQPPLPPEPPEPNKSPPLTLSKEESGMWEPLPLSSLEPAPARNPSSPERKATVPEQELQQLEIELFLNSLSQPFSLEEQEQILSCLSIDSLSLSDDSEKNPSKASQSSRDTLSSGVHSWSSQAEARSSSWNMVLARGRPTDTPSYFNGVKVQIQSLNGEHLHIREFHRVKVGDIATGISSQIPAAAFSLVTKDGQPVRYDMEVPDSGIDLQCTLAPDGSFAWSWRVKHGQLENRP

Ki: 25 nM
SMILES: CC(C)(O)C#Cc1ccc2c(c1)N(c1ccnc(N)n1)CC2 [CW15337, 4-(1-(2-aminopyrimidin-4-yl)indolin-6-yl)-2-methylbut-3-yn-2-ol]
